Experimental data published in patent US20260297080A1, “BICYCLIC COMPOUNDS AS CDK INHIBITORS” (BeOne Medicines I GmbH, priority 2022, published 2026).

What was measured:
CDK2/Cyclin E1 = CDK2/Cyclin E1 (Homo sapiens, UniProt P24941); test: CDK2/Cyclin E1 Biochemical Assay (TR-FRET), 0.060 mM ATP; settings: 0.15 μM Rb (Ser780)-biotin substrate, pH7.0, 60 min preincubation, 120 min reaction, room temperature
In short: (§1)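 TR-FRET assay with 0.15 μM Rb (Ser780)-biotin substrate and 0-10 μM compound in 50 mM HEPES pH7.0, 50 mM MgCl2, 1 mM DTT. ATP was 0.060 mM for CDK2/Cyclin E1 and 0.015 mM for CDK1/Cyclin B1. Kinase was preincubated with compound 60 min, reacted 120 min at room temperature, and IC50 was fitted (four-parameter) from the 665/620 nm ratio.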

CDK1/Cyclin B1 = CDK1/Cyclin B1 (Homo sapiens, UniProt P06493); test: CDK1/Cyclin B1 Biochemical Assay (TR-FRET), 0.015 mM ATP; settings: 0.15 μM Rb (Ser780)-biotin substrate, pH7.0, 60 min preincubation, 120 min reaction, room temperature
Sequence of CDK1/Cyclin B1 (P06493 whole entry): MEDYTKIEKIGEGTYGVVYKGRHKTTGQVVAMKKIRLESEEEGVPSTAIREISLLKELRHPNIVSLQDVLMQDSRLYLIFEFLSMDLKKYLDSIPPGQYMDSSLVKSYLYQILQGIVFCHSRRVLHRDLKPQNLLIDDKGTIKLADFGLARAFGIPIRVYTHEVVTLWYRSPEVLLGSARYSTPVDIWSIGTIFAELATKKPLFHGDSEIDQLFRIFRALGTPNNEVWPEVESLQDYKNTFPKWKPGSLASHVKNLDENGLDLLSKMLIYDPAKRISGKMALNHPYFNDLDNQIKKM
Sequence of CDK1/Cyclin B1 (P14635 whole entry partner): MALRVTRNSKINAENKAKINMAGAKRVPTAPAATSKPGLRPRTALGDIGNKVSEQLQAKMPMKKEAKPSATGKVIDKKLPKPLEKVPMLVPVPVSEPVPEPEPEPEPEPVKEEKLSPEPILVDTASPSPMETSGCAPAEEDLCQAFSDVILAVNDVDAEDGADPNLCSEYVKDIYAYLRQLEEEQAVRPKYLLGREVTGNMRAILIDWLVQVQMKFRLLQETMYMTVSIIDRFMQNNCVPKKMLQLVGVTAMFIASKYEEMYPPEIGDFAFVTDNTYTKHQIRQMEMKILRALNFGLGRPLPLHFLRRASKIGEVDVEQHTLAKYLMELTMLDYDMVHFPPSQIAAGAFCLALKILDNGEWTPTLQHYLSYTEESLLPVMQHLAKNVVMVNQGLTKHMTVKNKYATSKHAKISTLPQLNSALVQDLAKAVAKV
In short: as §1

| Structure (SMILES) | IC50 (CDK2/Cyclin E1) [nM] | IC50 (CDK1/Cyclin B1) [nM] |
| --- | --- | --- |
| [2H]C([2H])([2H])N1c2c(F)cc(Nc3cc([C@@H]4CC[C@H](OC(=O)NC(C)C)C4)[nH]n3)cc2CS1(=O)=O (single isomer, unassigned) [Example 289a, cis-3-(3-((7-fluoro-1-(methyl-d3)-2,2-dioxido-1,3-dihydrobenzo[c]isothiazol-5-yl)amino)-1H-pyrazol-5-yl)cyclopentyl isopropylcarbamate] | 10 | 196 |
| CC(C)NC(=O)O[C@H]1CC[C@@H](c2cc(Nc3ccc4c(c3)C(C)NS4(=O)=O)n[nH]2)C1 (single isomer, unassigned) [Example 321d, cis-3-(3-((3-methyl-1,1-dioxido-2,3-dihydrobenzo[d]isothiazol-5-yl)amino)-1H-pyrazol-5-yl)cyclopentyl isopropylcarbamate] | 0.6 | 5.4 |
| CC[C@H](C)NC(=O)O[C@H]1CC[C@@H](c2cc(Nc3ccc4c(c3)CS(=O)(=O)N4)n[nH]2)C1 (single isomer, unassigned) [Example 323a] | 6.7 | 30 |
| CN1c2ccc(Nc3cc([C@@H]4CC[C@H](OC(=O)NC56CC(C5)C6)C4)[nH]n3)cc2CS1(=O)=O (relative stereo) [Example 231, cis-3-(3-((1-methyl-2,2-dioxido-1,3-dihydrobenzo[c]isothiazol-5-yl)amino)-1H-pyrazol-5-yl)cyclopentyl bicyclo[1.1.1]pentan-1-ylcarbamate] | 1.5 | 13 |
| O=C(NCCC(F)(F)F)O[C@H]1CC[C@@H](c2cc(Nc3ccc4c(c3F)CNS4(=O)=O)n[nH]2)C1 (racemic) [Example 154, cis-3-(3-((4-fluoro-1,1-dioxido-2,3-dihydrobenzo[d]isothiazol-5-yl)amino)-1H-pyrazol-5-yl)cyclopentyl(3,3,3-trifluoropropyl)carbamate] | 1.7 | 333 |
| CC(C)NC(=O)O[C@H]1CC[C@@H](c2cc(Nc3ccc4c(c3F)CN(C3CN(Cc5ccccc5)C3)S4(=O)=O)n[nH]2)C1 (relative stereo) [Example 92, cis-3-(3-((2-(1-benzylazetidin-3-yl)-4-fluoro-1,1-dioxido-2,3-dihydrobenzo[d]isothiazol-5-yl)amino)-1H-pyrazol-5-yl)cyclopentyl isopropylcarbamate] | 36 | 1550 |
| CCCNC(=O)O[C@H]1CC[C@@H](c2cc(Nc3ccc4c(c3Cl)CNS4(=O)=O)n[nH]2)C1 (racemic) [Example 39, cis-3-(3-((4-chloro-1,1-dioxido-2,3-dihydrobenzo[d]isothiazol-5-yl)amino)-1H-pyrazol-5-yl)cyclopentyl propylcarbamate] | 15 | 374 |
| CC1(NC(=O)O[C@H]2CC[C@@H](c3cc(Nc4ccc5c(c4F)CNS5(=O)=O)n[nH]3)C2)CCC1 (relative stereo) [Example 163, cis-3-(3-((4-fluoro-1,1-dioxido-2,3-dihydrobenzo[d]isothiazol-5-yl)amino)-1H-pyrazol-5-yl)cyclopentyl(1-methylcyclobutyl)carbamate] | 0.8 | 18 |
| CC1(NC(=O)O[C@H]2CC[C@@H](c3cc(Nc4ccc5c(c4F)CNS5(=O)=O)n[nH]3)C2)COC1 (racemic) [Example 164, cis-3-(3-((4-fluoro-1,1-dioxido-2,3-dihydrobenzo[d]isothiazol-5-yl)amino)-1H-pyrazol-5-yl)cyclopentyl(3-methyloxetan-3-yl)carbamate] | 5 | 294 |
| C[C@@H](CO)NC(=O)O[C@H]1CC[C@@H](c2cc(Nc3ccc4c(c3F)CS(=O)(=O)N4C)n[nH]2)C1 (relative stereo) [Example 348, cis-3-(3-((4-fluoro-1-methyl-2,2-dioxido-1,3-dihydrobenzo[c]isothiazol-5-yl)amino)-1H-pyrazol-5-yl)cyclopentyl((S)-1-hydroxypropan-2-yl)carbamate] | 22 | 635 |
| CC1(NC(=O)O[C@H]2CC[C@@H](c3cc(Nc4ccc5c(c4F)CNS5(=O)=O)n[nH]3)C2)CC1 (single isomer, unassigned) [Example 140b, cis-3-(3-((4-fluoro-1,1-dioxido-2,3-dihydrobenzo[d]isothiazol-5-yl)amino)-1H-pyrazol-5-yl)cyclopentyl(1-methylcyclopropyl)carbamate] | 1.4 | 38 |
| Cc1cc2c(cc1Nc1cc([C@@H]3CC[C@H](OC(=O)NC(C)C)C3)[nH]n1)CS(=O)(=O)N2C (relative stereo) [Example 244, cis-3-(3-((1,6-dimethyl-2,2-dioxido-1,3-dihydrobenzo[c]isothiazol-5-yl)amino)-1H-pyrazol-5-yl)cyclopentyl isopropylcarbamate] | 1060 | 7260 |
| CC(C)NC(=O)O[C@H]1CC[C@@H](c2cc(Nc3cc4c(cc3F)NS(=O)(=O)C4)n[nH]2)C1 (single isomer, unassigned) [Example 292b, cis-3-(3-((6-fluoro-2,2-dioxido-1,3-dihydrobenzo[c]isothiazol-5-yl)amino)-1H-pyrazol-5-yl)cyclopentyl isopropylcarbamate] | 5.2 | 457 |
| CCCNC(=O)O[C@H]1CC[C@@H](c2cc(Nc3ccc4c(c3F)C(C)NS4(=O)=O)n[nH]2)C1 (single isomer, unassigned) [Example 53c, cis-3-(3-((4-fluoro-3-methyl-1,1-dioxido-2,3-dihydrobenzo[d]isothiazol-5-yl)amino)-1H-pyrazol-5-yl)cyclopentyl propylcarbamate] | 15 | 686 |
| CC(NC(=O)O[C@H]1CC[C@@H](c2cc(Nc3ccc4c(c3F)CN(C3CC3)S4(=O)=O)n[nH]2)C1)C1COC1 (relative stereo) [Example 357, cis-3-(3-((2-cyclopropyl-4-fluoro-1,1-dioxido-2,3-dihydrobenzo[d]isothiazol-5-yl)amino)-1H-pyrazol-5-yl)cyclopentyl(1-(oxetan-3-yl)ethyl)carbamate] | 23 | 817 |
| CC(C)NC(=O)O[C@H]1CC[C@@H](c2cc(Nc3ccc4c(c3F)CN(CCC3CCOCC3)S4(=O)=O)n[nH]2)C1 (relative stereo) [Example 114, cis-3-(3-((4-fluoro-1,1-dioxido-2-(2-(tetrahydro-2H-pyran-4-yl)ethyl)-2,3-dihydrobenzo[d]isothiazol-5-yl)amino)-1H-pyrazol-5-yl)cyclopentyl isopropylcarbamate] | 9.6 | 596 |
| CC1(NC(=O)O[C@H]2CC[C@@H](c3cc(Nc4ccc5c(c4F)CNS5(=O)=O)n[nH]3)C2)CCOC1 (single isomer, unassigned) [Example 162b, cis-3-(3-((4-fluoro-1,1-dioxido-2,3-dihydrobenzo[d]isothiazol-5-yl)amino)-1H-pyrazol-5-yl)cyclopentyl(3-methyltetrahydrofuran-3-yl)carbamate] | 1.1 | 186 |
| O=C(NCC1COC1)O[C@H]1CC[C@@H](c2cc(Nc3ccc4c(c3F)CNS4(=O)=O)n[nH]2)C1 (relative stereo) [Example 148, cis-3-(3-((4-fluoro-1,1-dioxido-2,3-dihydrobenzo[d]isothiazol-5-yl)amino)-1H-pyrazol-5-yl)cyclopentyl(oxetan-3-ylmethyl)carbamate] | 44 | 523 |
| CC(C)NC(=O)O[C@H]1CC[C@@H](c2cc(Nc3ccc4c(c3)CCS(=O)(=O)N4)n[nH]2)C1 (single isomer, unassigned) [Example 246b, cis-3-(3-((2,2-dioxido-3,4-dihydro-1H-benzo[c][1,2]thiazin-6-yl)amino)-1H-pyrazol-5-yl)cyclopentyl isopropylcarbamate] | 2.3 | 68 |
| CC(C)NC(=O)O[C@H]1CC[C@@H](c2cc(Nc3ccc4c(c3F)CN(C3CCCN(C)C3)S4(=O)=O)n[nH]2)C1 (relative stereo) [Example 61, cis-3-(3-((4-fluoro-2-(1-methylpiperidin-3-yl)-1,1-dioxido-2,3-dihydrobenzo[d]isothiazol-5-yl)amino)-1H-pyrazol-5-yl)cyclopentyl isopropylcarbamate] | 10 | 836 |
| CC(NC(=O)O[C@H]1CC[C@@H](c2cc(Nc3ccc4c(c3F)CNS4(=O)=O)n[nH]2)C1)C1CC1 (relative stereo) [Example 156, cis-3-(3-((4-fluoro-1,1-dioxido-2,3-dihydrobenzo[d]isothiazol-5-yl)amino)-1H-pyrazol-5-yl)cyclopentyl(1-cyclopropylethyl)carbamate] | 1.7 | 76 |
| CC(C)NC(=O)O[C@H]1CC[C@@H](c2cc(Nc3ccc4c(c3)CS(=O)(=O)N4C)n[nH]2)C1 (single isomer, unassigned) [Example 220b] | 2.6 | 35 |
| CC(C)NC(=O)O[C@H]1CC[C@@H](c2cc(Nc3ccc4c(c3F)CN(CC(O)CO)S4(=O)=O)nn2CC(O)CO)C1 (relative stereo) [Example 72, cis-3-(1-(2,3-dihydroxypropyl)-3-((2-(2,3-dihydroxypropyl)-4-fluoro-1,1-dioxido-2,3-dihydrobenzo[d]isothiazol-5-yl)amino)-1H-pyrazol-5-yl)cyclopentyl isopropylcarbamate] | 5910 | > 10000 |
| CC(NC(=O)O[C@H]1CC[C@@H](c2cc(Nc3ccc4c(c3)CS(=O)(=O)N4)n[nH]2)C1)C1COC1 (relative stereo) [Example 343, cis-3-(3-((2,2-dioxido-1,3-dihydrobenzo[c]isothiazol-5-yl)amino)-1H-pyrazol-5-yl)cyclopentyl(1-(oxetan-3-yl)ethyl)carbamate] | 3.2 | 43 |
